One test deals with T1, CYP3A4 (Homo sapiens, UniProt P08684).
T1 construct: Twenty microliters of human liver microsomes (final concentration of 0.3 mg/mL); from tissue; host or cells: human liver microsomes
Put plainly: Cytochrome P450 inhibition cocktail assay, human liver microsomes. It counts as in vitro ADME. The settings on record: probe midazolam, metabolite 1-OH-midazolam. The procedure: The cytochrome P450 (CYP) proteins form a large family of heme proteins that catalyze many reactions involved xenobiotic metabolism and biosynthesis of cholesterol, steroids, and other lipid components. Some chemicals could affect the disposition of conventional pharmaceuticals through the inhibition of CYP450 enzymes. […] The selective probe substrate concentrations were prepared near to its respective Km value, and the compound 3 concentration range is from […].
Compound 3 was screened for its ability to inhibit cytochrome P450 using a cocktail assay described previously. Briefly, 50 μL of compound 3 was added to 96-well plates, with final concentrations of 0.05, 0.1, 0.5, 1, 10, 50, and 100 μM, respectively. Twenty microliters of human liver microsomes (final concentration of 0.3 mg/mL) and 20 μL of probe substrates (Table 3) in 0.1 M Tris were added. After preincubation at 37 °C for 10 min, 10 μL of NADPH was added (final concentration of 1 mM), and the reaction started to incubate at the same temperature for 15 min. The reactions were then quenched by the addition of 100 μL of acetonitrile with a mixture of propranolol and nadolol (50 nM) used as an internal standard. After reactions were finished, the plates were centrifuged and the supernatants were analyzed for the five metabolites (Table 3) by LC/MS/MS.
For orientation: Liver microsomes are vesicles of endoplasmic reticulum, rich in cytochrome P450 enzymes.

Test [1] deals with Staphylococcus haemolyticus (S. haemolyticus). Put plainly: MIC testing, agar dilution method. It counts as cell-based. Particulars: 36.5 °C, 24–48 h. The method in brief: (§1)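 Stocks at 1280 µg/mL in 25%–40% DMSO are diluted twofold 11 times, to 0.625 µg/mL, and each dilution is blended into hot Mueller-Hinton agar. Plates receive 10 µL of 10^5–10^6 CFU/mL suspensions and are incubated at 36.5 °C for 24–48 h.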
For orientation: Agar dilution tests growth on a series of plates holding different concentrations.

The subject of test [2] is Methicillin-resistant Staphylococcus aureus (MRSA). Put plainly: MIC testing, agar dilution method. It counts as cell-based. The settings on record: 36.5 °C, 24–48 h. The procedure, abridged:
as §1

The test system of test [3] is Escherichia coli (E. coli). Put plainly: MIC testing, agar dilution method. It counts as cell-based. Particulars: 36.5 °C, 24–48 h. The method in brief:
as §1

The test system of test [4] is Staphylococcus vitulinus (S. vitulinus). Put plainly: MIC testing, agar dilution method. Type of test: cell-based. Particulars: Mammaliicoccus vitulinus, 36.5 °C, 24–48 h. The method in brief: as §1
For test [5], the system named is Staphylococcus aureus (S. aureus). Put plainly: MIC testing, agar dilution method. The settings on record: 36.5 °C, 24–48 h. Type of test: cell-based. The procedure, abridged: as §1
The test system of test [6] is Staphylococcus warneri (S. warneri). Put plainly: MIC testing, agar dilution method. Particulars: 36.5 °C, 24–48 h. Type of test: cell-based. The method in brief:
as §1

For a further test, the system named is S. vitulinus. Put plainly: Oxford cup assay, zone of inhibition. It counts as cell-based, Staphylococcus vitulinus. The settings on record: Mammaliicoccus vitulinus. The procedure, abridged:
(§2)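 Agar cup diffusion on nutrient agar with saline bacterial suspensions matched to McFarland standard. Compounds were dosed at 320 and 160 µg/mL, and inhibition zones were recorded following 24–36 h at 37 °C.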

A further test relates to E. coli. Put plainly: Oxford cup assay, zone of inhibition. It counts as cell-based. The settings on record: Escherichia coli. The procedure, abridged: as §2
The next test deals with S. warneri. Put plainly: Oxford cup assay, zone of inhibition. It counts as cell-based. The settings on record: Staphylococcus warneri. The method in brief: as §2
For a further test, the system named is S. haemolyticus. Put plainly: Oxford cup assay, zone of inhibition. Type of test: cell-based. Particulars: Staphylococcus haemolyticus. The method in brief: as §2
In test [7] the test system is MRSA. Put plainly: Oxford cup assay, zone of inhibition. It counts as cell-based. Particulars: Staphylococcus aureus. The method in brief: as §2
The test system of test [8] is S. aureus. Put plainly: Oxford cup assay, zone of inhibition. It counts as cell-based. Particulars: Staphylococcus aureus. The procedure, abridged: as §2
Test [9] has as its system MRSA. Put plainly: Inhibition of short-term bacterial growth (absorbance at 450 nm). Type of test: cell-based. Particulars: Staphylococcus aureus, 3.5 h incubation, Mueller-Hinton broth. The procedure:
(§3) Compound 3, being the best antibacterial derivative, was chosen for further evaluation on its antibacterial effect to inhibit short-term S. aureus and MRSA growth (Figure 2). This includes the GI50 of tiamulin fumarate for S. aureus and MRSA.
(§4) The inhibition activities of test compounds were evaluated by measuring the absorbance of the bacterial suspension. In brief, inoculums were prepared from blood slants and adjusted to approximately 10^6 CFU/mL in Muellere-Hinton broth. The 0.0625, 0.125, 0.25, 0.5, 1, and 2 µM of tested compounds were prepared and added to the prepared inoculums. A sample of inoculum with no compound was used as control. The absorbance of bacterial suspension at 450 nm was measured using an UV spectrophotometer after 3.5 h of incubation, and the inhibition was calculated as 1 − (A^P/A^0), where A^p and A^0 are the absorbance of bacterial suspension in the presence and absence of compounds, respectively. The same procedure was independently repeated in triplicate.

Test [10] deals with S. aureus. Described as above. It counts as cell-based. Particulars: Staphylococcus aureus, 3.5 h, read-out: GI50 S. aureus growth. The procedure: as §3, §4

We go through one compound from publication PMC6273978, “Synthesis and Pharmacological Evaluation of Novel Pleuromutilin Derivatives with Substituted Benzimidazole Moieties” (Molecules, 2016).

Each structure is given as a SMILES string. In brackets after ≈: the same amount, converted by molar mass.

T1 sequence (P08684 whole entry): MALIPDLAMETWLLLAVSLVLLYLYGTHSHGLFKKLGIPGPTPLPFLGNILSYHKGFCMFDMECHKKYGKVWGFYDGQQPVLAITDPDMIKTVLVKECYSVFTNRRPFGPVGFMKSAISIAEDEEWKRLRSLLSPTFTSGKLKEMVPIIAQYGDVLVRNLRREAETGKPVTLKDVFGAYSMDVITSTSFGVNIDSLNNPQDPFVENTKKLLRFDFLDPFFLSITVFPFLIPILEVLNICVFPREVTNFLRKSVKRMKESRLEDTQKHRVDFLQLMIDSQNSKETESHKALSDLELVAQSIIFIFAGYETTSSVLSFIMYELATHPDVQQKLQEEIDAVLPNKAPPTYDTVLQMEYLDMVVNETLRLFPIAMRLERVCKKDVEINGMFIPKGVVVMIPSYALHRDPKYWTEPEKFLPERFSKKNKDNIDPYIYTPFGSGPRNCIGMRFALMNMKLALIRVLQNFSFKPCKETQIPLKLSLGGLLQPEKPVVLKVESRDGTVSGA

As to `C=C[C@]1(C)C[C@@H](OC(=O)CSc2nc3ccc(N)cc3[nH]2)[C@]2(C)[C@H](C)CC[C@]3(CCC(=O)[C@H]32)[C@@H](C)[C@@H]1O` [Compound 3, 14-O-((5-Amino-benzimidazole-2-yl)thioacetyl) Mutilin], the IC50 at CYP3A4 was found to be 1690 nM. For the same compound, the MIC was determined as 0.156 µg/mL (≈ 0.297 µM) in [1]; 0.156 µg/mL (≈ 0.297 µM) in test [2]; 10 µg/mL (≈ 19 µM) in test [3]; 0.156 µg/mL (≈ 0.297 µM) in test [4]; 0.156 µg/mL (≈ 0.297 µM) in test [5]; 0.156 µg/mL (≈ 0.297 µM) in test [6]. Besides, the zone of inhibition at 160 µg/mL in the test with S. vitulinus (160 µg/mL) came to 25.5 mm; in the test with E. coli (160 µg/mL), 21.4 mm; in the test on S. warneri (160 µg/mL), 28 mm; in the test on S. haemolyticus (160 µg/mL), 30.3 mm; in the test on MRSA [7] (160 µg/mL), 25.4 mm; in the test with S. aureus [8] (160 µg/mL) it was 27.3 mm. Further, the zone of inhibition at 320 µg/mL with S. vitulinus (320 µg/mL) is 29.6 mm; with E. coli (320 µg/mL), 25.5 mm; with S. warneri (320 µg/mL), 32.3 mm; in the test with S. haemolyticus (320 µg/mL), 33 mm; in the test with MRSA [7] (320 µg/mL) it was 30.6 mm; with S. aureus [8] (320 µg/mL) it was 29.6 mm. Besides, the GI50 with MRSA [9] is 175 nM; in the test on S. aureus [10], 98.7 nM.

The term IC50 denotes the concentration needed to halve the response being measured. For orientation: MIC means the smallest concentration in the dilution series that meets the test's criterion for growth inhibition. The term zone of inhibition denotes the size of the clear area around the sample on an inoculated plate. A lower zone of inhibition goes with little suppression of growth. A word on the GI50: it is the concentration giving 50% growth inhibition.
